# Measurements: US20070265238A1, “METHOD FOR ACCELERATING REENTRAINMENT OF A CIRCADIAN RHYTHM” (priority 2006, published 2007)
# Test system: body temperature rhythms
# Assay: Reentrainment of body temperature circadian rhythm after eastward jet travel across 6 time zones (Detroit to Vienna)
# Assay type: in vivo, human
# Settings: applied beneath nostrils each morning on awakening; for length of time to reestablish stable body temperature rhythms: women, vs control vehicle (mineral oil and clove oil), FIG. 1
# Procedure: This experimental involved 15 subjects who were traveling from Detroit, Michigan to Vienna, Austria by air, a journey which spanned 6 time zones. The subjects comprised 8 women and 5 men aged 18-19 and 2 women […]. Two groups of compositions were prepared. The first comprised an experimental formulation containing 20 micrograms of 4,16-androstadien-3-one dissolved in a mixture of mineral oil and clove oil. A second composition comprising a control/placebo consisted of the mineral oil and clove oil. The 2 compositions were each packaged in 5 ml and supplied to selected test subjects along with cotton-tipped applicators. The test and control materials were randomly distributed, and participants were unaware of which composition they had obtained.
# Upon arrival in Vienna, each participant was directed to place a small amount of their particular composition directly beneath their nostrils with a new cotton applicator immediately upon awakening each morning. The participants were directed to allow the compositions to remain on their skin for at least an hour.
# External temperature monitors (iButton, Inc., Pittsburgh, Pa.) were affixed to each of the subjects with a gauze protective layer between the skin and the monitoring device. The monitors were covered with neoprene material for insulation against environmental temperature interference and held in place with a waterproof medical bandage which was changed every 3 days or as necessary. The monitoring devices were set to acquire temperature every 10 minutes throughout the entire period of the experiment and for a 3-day period prior to travel. Participants also kept daily event logs to monitor the timing of activities that could influence temperature data such as sleep and wake times, showers, exercise and naps. […]
# Data were analyzed to determine the length of time needed for core temperature rhythms to reentrain with the new time schedule, returning to a phase angle of entrainment similar to that recorded before travel. […]
smiles,measurement,setting,value
"C[C@@]12C=CC[C@H]1[C@@H]1CCC3=CC(=O)CC[C@]3(C)[C@H]1CC2 [4,16-androstadien-3-one]",reentrainment rate of body temperature rhythms,"men, vs control vehicle",no effects
same,length of time to reestablish stable body temperature rhythms,,accelerate reestablishment of body temperature rhythms
same,length of time to reestablish stable body temperature rhythms,listed as pheromone,reentrained significantly faster
